Activity calls are given as the source filed them.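 The calls were made as follows: active = fitted half-maximal concentration for changing background-corrected GFP signal at or below a set limit; inactive = the rest.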
Experiment: modulators of MEP2-GFP levels in yeast, dose response, S. cerevisiae, flow cytometry GFP, MLPCN hits (AID 2742);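 also: GFP tag reports level of MEP2 protein as a downstream target of TOR signalling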
Conditions: S. cerevisiae MEP2-GFP strain, flow cytometry fluorescence, 3 h; at 33 µM (top of the series)

SMILES	GFP fluorescence (kMESF), higher = increase
Cc1ccc(/C=C2\SC(=S)N(Cc3ccccc3)C2=O)o1	9.98 kMESF (inactive)
COc1cc(/C=C2\C(=O)ON=C2c2ccccc2)cc(OC)c1OC	3.21 kMESF (inactive)
CCOc1ccc(N2C(=O)/C(=C\c3cccs3)C(=O)NC2=S)cc1	3.57 kMESF (inactive)
CCCCCCCCC/C(=N\O)c1ccccn1	3.61 kMESF (inactive)
O=C(Oc1c(Cl)cc(Cl)c2cccnc12)c1cccc([N+](=O)[O-])c1	4.13 kMESF (inactive)
COc1cccc2cc(-c3nc4ccccc4o3)c(=O)oc12	1.66 kMESF (inactive)
Cc1ccc(NC(=O)c2ccc(Cl)c(N3C(=O)C=CC3=O)c2)cc1	5.91 kMESF (inactive)
O=C(NOC(=O)c1ccccc1)c1ccccc1	5.42 kMESF (inactive)
COc1ccc2c(c1)c1nnc(SC)nc1n2C	1.9 kMESF (inactive)
CC(C)Cn1c(=O)c(C(=O)Nc2ccncc2)c(O)c2ccccc21	3.98 kMESF (inactive)
CC(=O)SC(C[N+](=O)[O-])c1cn(C(C)=O)c2ccccc12 (configuration not stated)	6.37 kMESF (inactive)
O=C1/C(=C\c2ccc(O)c(O)c2)SC(=S)N1Cc1ccccc1	-21.1 kMESF (inactive)
CCc1sc(C(=O)Nc2nc(-c3ccccn3)cs2)cc1C	5.26 kMESF (inactive)
N/C(=N\OC(=O)c1ccc(Cl)cc1Cl)c1ccccc1	3.21 kMESF (inactive)
CN1CCN(C(c2ccc(C(F)(F)F)cc2)c2ccc3cccnc3c2O)CC1 (configuration not stated)	4.86 kMESF (inactive)
COc1ccc(CCNC2=C(Cl)C(=O)N(CCc3ccccc3)C2=O)cc1OC	2.6 kMESF (inactive)
O=C(COc1ccccc1)N1CCN(c2ncnc3c2cnn3-c2ccccc2)CC1	1.97 kMESF (inactive)
CC(C)(C)c1cc(C(c2cccnc2)N2CCN(CCO)CC2)cc(C(C)(C)C)c1O (configuration not stated)	-4.66 kMESF (inactive)
Cc1ccc(C2=NOC(=O)/C2=C\c2ccc(C)o2)cc1	2.14 kMESF (inactive)
Nc1nc(N)c2nc(CNc3ccc(C(=O)NC(CCC(=O)O)C(=O)O)cc3)cnc2n1 (configuration not stated)	1.62 kMESF (inactive)
O=C(OCC(=O)N1CCN(C(=O)c2ccco2)CC1)c1cc(-c2cccc(Br)c2)nc2ccccc12	4.47 kMESF (inactive)

SMILES	GFP fluorescence (kMESF), higher = increase
Cc1ccc(/C=C2\C(=O)NC(=S)N(c3ccccc3F)C2=O)s1	4.49 kMESF (inactive)
CC(=O)[C@]1(O)Cc2c(O)c3c(c(O)c2[C@@H](O[C@H]2C[C@H](N)[C@H](O)[C@H](C)O2)C1)C(=O)c1ccccc1C3=O	4.71 kMESF (inactive)
O=[N+]([O-])c1cc(CN2CCN(c3cccc(C(F)(F)F)c3)CC2)c2cccnc2c1O	4.44 kMESF (inactive)
O=C(Oc1oc(-c2ccco2)nc1C=Nc1ccccc1)c1ccoc1	4.11 kMESF (inactive)
Cc1ccc(/C=C2\SC(=S)N(CC3CCCO3)C2=O)o1 (configuration not stated)	4.83 kMESF (inactive)
CS(=O)(=O)N1N=C(c2ccccc2)CC1c1ccc2c(c1)OCO2 (configuration not stated)	78.8 kMESF (inactive)
Nc1c(C(=O)c2cccs2)sc2nsc(SCCN3CCCCC3)c12	15.6 kMESF (inactive)
Clc1cccc(CN2COc3c(cc(Cl)c4cccnc34)C2)c1	8.07 kMESF (inactive)
COc1ccc(N=Cc2nc(-c3ccccc3)oc2OC(C)=O)cc1	3.51 kMESF (inactive)
O=C(Nc1ccc(Cl)cc1)ON=C1CCCC1	4.17 kMESF (inactive)
COc1ccc(C(=O)/C=C2/C(=O)Nc3ccccc32)cc1OC	2.25 kMESF (inactive)
COc1ccccc1-c1nc2s/c(=C\c3cccs3)c(=O)n2n1	5.28 kMESF (inactive)
CCOC(=O)CCS(=O)(=O)c1nc(-c2ccccc2)cc(C(F)(F)F)n1	7.24 kMESF (inactive)
Cc1ccc2nc(/C(C#N)=C/c3ccc(O)c(O)c3)[nH]c2c1	4.49 kMESF (inactive)
CC1=NOC(=O)/C1=C\c1ccc(-c2cc(Cl)ccc2Cl)o1	4.04 kMESF (inactive)
CC(C)(C)n1nc(-c2ccc(Cl)cc2)c2c(N)ncnc21	6.05 kMESF (inactive)
COc1cccc(/C=C/C(=O)c2c(O)cc(C)oc2=O)c1O	4.26 kMESF (inactive)
COc1ccc(/C=C/C(=O)c2cc(Br)ccc(=O)c2O)cc1	-51.6 kMESF (inactive)
CCc1nc2ccccc2c(=O)n1NC(=O)c1c(O)c2cccc3c2n(c1=O)CCC3	1.72 kMESF (inactive)
CCc1nc2ccccc2c(=O)n1NC(=O)c1c(O)c2ccccc2n(CC)c1=O	2.98 kMESF (inactive)
COc1cccc(C(=O)Nc2nnc(-c3ccc(Cl)cc3)o2)c1	4.71 kMESF (inactive)
